NC(=O)Cc1ccc(O)cc1
solubility (mole fraction)
Details | 278.15 K | 283.15 K | 288.15 K | 293.15 K | 298.15 K | 303.15 K | 308.15 K | 313.15 K | 318.15 K | 323.15 K
in acetonitrile | 0.00096 | 0.00141 | 0.00188 | 0.00249 | 0.00305 | 0.00376 | 0.00463 | 0.00573 | 0.00705 | 0.00869
in ethanol | 0.00381 | 0.00459 | 0.00534 | 0.00638 | 0.00752 | 0.00902 | 0.0107 | 0.0126 | 0.015 | 0.0179
in ethyl acetate | 0.0017 | 0.00196 | 0.00238 | 0.00297 | 0.00363 | 0.00455 | 0.00557 | 0.00663 | 0.0078 | 0.00932
in isopropanol | 0.00319 | 0.00379 | 0.0046 | 0.00552 | 0.00684 | 0.00852 | 0.0102 | 0.0122 | 0.0142 | 0.0164
in methanol | 0.0075 | 0.00824 | 0.00951 | 0.0111 | 0.0128 | 0.0148 | 0.0169 | 0.0192 | 0.0218 | 0.0246
in methyl acetate | 0.0032 | 0.00359 | 0.00415 | 0.00486 | 0.00577 | 0.0068 | 0.00779 | 0.00908 | 0.0103 | 0.0118
in n-butanol | 0.00284 | 0.00346 | 0.00428 | 0.00508 | 0.00642 | 0.00754 | 0.00899 | 0.0106 | 0.0125 | 0.0144
in n-butyl acetate | 0.00269 | 0.003 | 0.00345 | 0.0041 | 0.00491 | 0.00587 | 0.00694 | 0.00812 | 0.00935 | 0.0105
in n-heptane | 0.00061 | 0.00087 | 0.00111 | 0.00145 | 0.00194 | 0.00253 | 0.00329 | 0.00418 | 0.00509 | 0.00627
in n-hexane | 0.00032 | 0.00053 | 0.00082 | 0.00116 | 0.00151 | 0.00205 | 0.00263 | 0.00343 | 0.00438 | 0.0056
in n-propanol | 0.00215 | 0.00245 | 0.00292 | 0.0035 | 0.00424 | 0.0052 | 0.00629 | 0.00734 | 0.00868 | 0.01
in water | 0.00096 | 0.00141 | 0.00188 | 0.00249 | 0.00305 | 0.00376 | 0.00463 | 0.00573 | 0.00705 | 0.00869
